Measurements as given in ChEMBL document CHEMBL6109096, “Synthesis, anti-allergic rhinitis evaluation and mechanism investigation of novel 1,2,4-triazole-enamides as CB1 R antagonist” (Eur J Med Chem, 2025).

System: RAW264.7
Test: Cytotoxicity against mouse RAW264.7 cells assessed as reduction in cell viability at 10 uM incubated for 24 hrs by CCK-8 assay
Format: toxicity, cell-based
Conditions: raw264.7, 24 h

CN(/C=C\c1ccccc1)C(=O)c1nc(-c2ccc(F)cc2)n(-c2ccccc2)n1
Activity: Non-toxic

Cc1cccc(-c2nc(C(=O)N(C)/C=C\c3ccccc3)nn2-c2ccccc2)c1
Activity: Non-toxic

CCCc1nc(C(=O)N(C)/C=C\c2ccccc2)nn1-c1ccccc1
Activity: Non-toxic
